{"source": "paper PMC10961359", "about": "“Targeting hexokinase 2 for oral cancer therapy: structure-based design and validation of lead compounds” (Frontiers in Pharmacology, 2024)", "type_in_all_cases": "cell-based", "key": {"[1]": {"system": "Cal27 cells", "assay": "Mitochondria membrane potential by TMRE uptake, Cal27", "conditions": "Cal27, 30 μM, 4 h", "protocol": "FaDu and Cal27 cells were treated with test compounds (0.2 million cells per treatment) and were incubated for 1 h with 100 μM of 2-NBDG (Invitrogen, N13195), in glucose free medium, washed with ice-cold PBS, and re-suspended in 500 μL of PBS and maintained on ice to perform flow cytometric analyses within 30 min. The mean fluorescent intensity (MFI) readout reflects the amount of fluorescent glucose analog taken up by the cells, providing insight into their glucose uptake capacity. The percent (%) cell population positive for glucose uptake (shown with a right shift of the histogram peaks) were also plotted for both the cell lines. For MMP analysis, cells were incubated with 200 nM of TMRE (Invitrogen, T669) for 30 min. For each measurement, data was collected for 10,000 events using a BD FACS Aria III (Becton Dickinson, San Jose, CA) instrument.\n(§1) Mitochondria utilize the oxidizable substrates to produce a membrane potential as the proton gradient ([Sivandzade et al., 2019]). […] To determine the change in MMP post-treatment with HK2 inhibitors, the cells were treated with 200 nM of TMRE (tetramethyl rhodamine ethyl ester, a cell-permeant cationic dye readily sequestered by active mitochondria) and flow cytometric analyses of TMRE uptake was carried out. […]"}, "[2]": {"system": "LC3B in Cal27 cells", "assay": "Immunofluorescence LC3B / MitoTracker Red colocalization (mitophagy)", "conditions": "Cal27, 4 h", "protocol": "Cal27 cells were treated with respective compounds for 4h, and washed with PBS and fixed with 100% methanol. The non-specific antibody binding was blocked by incubating with 5% goat serum in 0.3% Triton X-100 for 1 h. The diluted primary antibody (LC3B mAb, CST Cat# 3868) and MitoTracker Red (CST, Cat# 9082) were applied and samples were incubated overnight at 4°C followed by addition of fluorescently labelled secondary antibody for 2 h at room temperature and visualized using Leica DMi8 laser scanning confocal microscope using the Leica LAS X software. To analyze the extent of mitophagy in the captured images, the colocalization area of green (LC3B) and red (Mito-Red) portions were quantified using the LAS X software. The LC3B MFI was also quantified and represented in gray values.\nas §1, with “2019]). Loss in mitochondrial membrane potential (MMP) is a direct measurement of mitochondrial stress and may cause the release of apoptotic factors leading to cell death ([Zhang et al., 2017]).” for “2019]).”"}, "[3]": {"system": "Cal27 spheroids", "assay": "3D spheroid culture of Cal27 cells", "protocol": "Cal27 cells were seeded at a density of 10,000 cells per well in a 96-well plate coated with 1.5% agarose in incomplete medium. For the prophylactic treatment, medium containing the compounds was added to each well after 6 h of seeding. For treatment, compounds were added after 48 h of seeding. After incubation with the compounds, spheroids were imaged using phase-contrast microscopy to assess the morphology and size. Subsequently, the spheroids were pooled and dissociated into single cell suspension with trypsin for 10 min, washed with PBS and stained with propidium iodide (Cat# BD556547) to analyze the number of apoptotic cells using flow cytometry. For the analysis of spheroid images, each image was processed using ImageJ software where the threshold of each 8-bit image was adjusted to differentiate the darker spheroid area (the inner core) from the lighter spheroid area (the peripheral layers). Subsequently, the darker and lighter areas were measured in pixel square units using the ‘analyze particles’ option in ImageJ.\nCells plated in monolayer cultures might behave differently as compared to 3D cultures. The 3D cultures can better mimic the tumor development and serve as a better tool for drug screening ([Zanoni et al., 2016]). Therefore, spheroid cultures of Cal27 cells were prepared and treated with lead H2. […]"}, "[4]": {"system": "FaDu cells", "assay": "Cell cycle analysis (propidium iodide, flow cytometry), FaDu", "conditions": "10 and 30 μM, 72 h", "protocol": "FaDu and Cal27 cells were treated with the test compounds (0.5 million cells per treatment) for 72 h, and harvested for cell cycle analysis (Cat# BD340242) and apoptosis analysis (Cat# BD556547) by flow cytometry according to manufacturer’s instructions.\nTo determine the effect of HK2 inhibition in the progression of the cell cycle, flow cytometric analysis of compound-treated FaDu and Cal27 cells was carried out 72 h post-treatment. Cell cycle analysis is carried out to quantify the DNA content and estimate the percentages of the cell population in different cell cycle phases via propidium iodide staining. […] To determine the apoptosis-inducing activity of HK2 inhibitors, 10 and 30 μM of compounds H2 and H10 treated FaDu and Cal27 cells were stained with annexin V conjugated with FITC, followed by propidium iodide staining."}}}
{"compound": "COc1ccc(CNC(=O)c2nc3ccccc3s2)cc1O", "note": "[Compound 14, N-(3-hydroxy-4methoxybenzyl)benzo[d]thiazole-2-carboxamide]", "values": [{"measurement": "MMP reduction compared to H10 and CCCP", "setting": "[1]", "value": "more effective in reducing the MMP"}, {"measurement": "LC3B expression and co-localization with MitoTracker Red (mitophagy)", "setting": "[2]", "value": "increase in LC3B expression"}, {"measurement": "spheroid growth", "setting": "[3]; prophylactic and therapeutic treatment", "value": "reduction of spheroid growth"}, {"measurement": "population of dead cells in spheroids", "setting": "[3]; propidium iodide staining at the end of the study", "value": "increase in the population of dead cells"}, {"measurement": "subG1 phase population", "setting": "[4]", "value": "increase in subG1 phase population"}]}
